Results taken from patent US20050130287A1, “Purifying process of soluble proteins of the l.obliqua bristles through prothrombin activation: process for a partial determination of the amino acids sequence of the prothrombin activator; process for determining the prothrombin activation of fraction II, n-terminal and internal fragments sequences” (priority 2002, published 2005).

Target: T1, Lopap (Lonomia obliqua, UniProt Q5ECE3)
T1 construct: from tissue; host or cells: Lonomia obliqua caterpillar bristles
T1 sequence (Q5ECE3 17-201): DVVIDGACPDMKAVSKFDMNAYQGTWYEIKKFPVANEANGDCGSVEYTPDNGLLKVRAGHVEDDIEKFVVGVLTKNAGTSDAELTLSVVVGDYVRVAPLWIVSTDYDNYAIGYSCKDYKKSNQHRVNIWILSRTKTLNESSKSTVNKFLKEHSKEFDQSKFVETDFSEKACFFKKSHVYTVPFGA
Assay: Lopap inhibition by PMSF or E-64 (S-2238)
Type: biochemical

## CC(C)C[C@H](NC(=O)[C@H]1O[C@@H]1C(=O)O)C(=O)NCCCCN=C(N)N (relative stereo) [E-64, trans-epoxysuccinil-L-leucilamide-(4-guanidine-butane)]
3,2 mM E-64, Lopap 75 nM
  effect on Lopap activity: did not affected it

## O=S(=O)(F)Cc1ccccc1 [PMSF, phenylmethylsulphonil fluoride]
10 mM PMSF, Lopap 75 nM
  effect on Lopap activity: completely annulled
